In ChEMBL document CHEMBL1143305, “SAR and biological evaluation of analogues of a small molecule histone deacetylase inhibitor N-(2-aminophenyl)-4-((4-(pyridin-3-yl)pyrimidin-2-ylamino)methyl)benzamide (MGCD0103)” (Bioorg Med Chem Lett, 2009):
≈ marks a conversion by molar mass, not a printed value.

Assays:
[1] = Terminal half life in Sprague-Dawley rat at 2.5 mg/kg, iv up to 6 hrs; format: ADME, organism-based; design: dose 2.5 mg/kg, route intravenous; conditions: in vivo, read-out: beta t1/2 (converted)
[2] = Clearance in Sprague-Dawley rat at 2.5 mg/kg, iv up to 6 hrs; format: ADME, organism-based; design: dose 2.5 mg/kg, route intravenous; conditions: in vivo
[3] = Volume of distribution at steady state in Sprague-Dawley rat at 2.5 mg/kg, iv up to 6 hrs; format: ADME, organism-based; design: dose 2.5 mg/kg, route intravenous; conditions: in vivo, read-out: Vdss
[4] = Tmax in Sprague-Dawley rat at 5 mg/kg, po up to 6 hrs; format: ADME, organism-based; design: dose 5 mg/kg, route oral; conditions: in vivo
[5] = Oral bioavailability in Sprague-Dawley rat at 5 mg/kg up to 6 hrs; format: ADME, organism-based; conditions: in vivo
[6] = Metabolic stability in human microsomes assessed as biotransformation rate; format: ADME, Microsome
[7] = Metabolic stability in mouse microsomes assessed as biotransformation rate; format: ADME, Microsome
[8] = Metabolic stability in rat microsomes assessed as biotransformation rate; format: ADME, Microsome
[9] = Solubility at pH 1.2; format: physicochemical; conditions: buffer
[10] = Solubility at pH 6.8; format: physicochemical; conditions: buffer
HCT-15 = experiment: Antitumor activity against human HCT15 cells xenografted in mouse at 5 mg/kg, po administered once daily for 12 days relative to control; format: functional
[11] = Antitumor activity against human AZ-521 cells xenografted in mouse at 5 mg/kg, po administered once daily for 12 days relative to control; format: functional
[12] = Antitumor activity against human AZ-521 cells xenografted in mouse at 10 mg/kg, po administered once daily for 12 days relative to control; format: functional
[13] = Antitumor activity against human TSU-Pr1 cells xenografted in mouse at 10 mg/kg, po administered once daily for 12 days relative to control; format: functional
[14] = Antitumor activity against human TSU-Pr1 cells xenografted in mouse at 20 mg/kg, po administered once daily for 12 days relative to control; format: functional
Mus musculus [15] = experiment: Toxicity in mouse xenografted with human HCT15 cells at 5 to 20 mg/kg, po administered once daily for 12 days; format: organism-based, HCT-15; design: dose 5-20 mg/kg, route oral; conditions: in vivo, 288 h
Mus musculus [16] = experiment: Toxicity in mouse xenografted with human AZ-521 cells at 5 to 20 mg/kg, po administered once daily for 12 days; format: organism-based; design: dose 5-20 mg/kg, route oral; conditions: in vivo, 288 h
Mus musculus [17] = experiment: Toxicity in mouse xenografted with human TSU-Pr1 cells at 5 to 20 mg/kg, po administered once daily for 12 days; format: organism-based; design: dose 5-20 mg/kg, route oral; conditions: in vivo, 288 h
Mus musculus [18] = experiment: Toxicity in mouse xenografted with human H460 cells at 5 to 20 mg/kg, po administered once daily for 12 days; format: organism-based; design: dose 5-20 mg/kg, route oral; conditions: in vivo, 288 h
HMEC = experiment: Selectivity ratio of IC50 for HMEC to IC50 for human HCT116 cells
T-24 = experiment: Induction of histone H4 hyperacetylation in human T24 cells after 16 hrs by immunoblotting; format: functional, cell-based; conditions: T-24, 16 h
Histone deacetylase 5 = Histone deacetylase 5 (Homo sapiens, UniProt Q9UQL6); experiment: Inhibition of HDAC5
Histone deacetylase 7 = biological target: T1, Histone deacetylase 7 (Homo sapiens, UniProt Q8WUI4); experiment: Inhibition of HDAC7
T1 sequence (Q8WUI4 whole entry): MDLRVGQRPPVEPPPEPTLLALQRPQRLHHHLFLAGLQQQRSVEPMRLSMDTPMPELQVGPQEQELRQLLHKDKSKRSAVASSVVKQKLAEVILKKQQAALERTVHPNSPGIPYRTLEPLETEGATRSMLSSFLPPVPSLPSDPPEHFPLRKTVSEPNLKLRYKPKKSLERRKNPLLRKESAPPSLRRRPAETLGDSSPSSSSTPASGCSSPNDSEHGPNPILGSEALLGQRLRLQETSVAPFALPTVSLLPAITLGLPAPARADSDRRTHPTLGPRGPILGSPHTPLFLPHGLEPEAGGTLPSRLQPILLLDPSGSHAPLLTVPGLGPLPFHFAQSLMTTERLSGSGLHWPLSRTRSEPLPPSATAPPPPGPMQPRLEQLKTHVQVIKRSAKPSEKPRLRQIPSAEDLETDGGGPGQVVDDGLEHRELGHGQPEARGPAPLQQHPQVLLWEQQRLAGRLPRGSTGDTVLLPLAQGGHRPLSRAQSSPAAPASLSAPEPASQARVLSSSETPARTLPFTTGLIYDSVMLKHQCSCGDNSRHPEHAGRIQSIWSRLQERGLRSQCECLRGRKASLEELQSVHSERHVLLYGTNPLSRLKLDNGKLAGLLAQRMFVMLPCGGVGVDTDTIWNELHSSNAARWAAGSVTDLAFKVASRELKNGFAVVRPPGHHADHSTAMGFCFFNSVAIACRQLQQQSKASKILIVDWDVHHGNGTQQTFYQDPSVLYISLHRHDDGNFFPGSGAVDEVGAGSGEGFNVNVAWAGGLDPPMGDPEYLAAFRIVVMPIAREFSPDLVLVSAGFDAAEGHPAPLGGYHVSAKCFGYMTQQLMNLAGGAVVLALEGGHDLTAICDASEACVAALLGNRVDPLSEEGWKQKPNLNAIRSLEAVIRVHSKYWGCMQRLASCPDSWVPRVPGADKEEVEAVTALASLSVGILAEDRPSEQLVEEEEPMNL

Histone deacetylase 8 = biological target: T2, Histone deacetylase 8 (Homo sapiens, UniProt Q9BY41); experiment: Inhibition of HDAC8
T2 sequence (Q9BY41 whole entry): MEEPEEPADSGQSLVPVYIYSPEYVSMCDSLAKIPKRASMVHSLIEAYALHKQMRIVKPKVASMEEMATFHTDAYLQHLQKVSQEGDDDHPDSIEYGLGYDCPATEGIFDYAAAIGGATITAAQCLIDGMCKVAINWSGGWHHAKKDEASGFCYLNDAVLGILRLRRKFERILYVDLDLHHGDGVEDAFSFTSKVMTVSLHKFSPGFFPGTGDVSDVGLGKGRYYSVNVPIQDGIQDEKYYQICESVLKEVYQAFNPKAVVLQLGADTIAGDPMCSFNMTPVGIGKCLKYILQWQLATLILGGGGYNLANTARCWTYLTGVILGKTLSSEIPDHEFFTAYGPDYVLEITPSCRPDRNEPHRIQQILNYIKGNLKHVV

Histone deacetylase 2 = Histone deacetylase 2 (Homo sapiens, UniProt Q92769)
HCT-116 = experiment: cells; conditions: Homo sapiens
Description: Antiproliferative activity against human HCT116 cells by MTT assay

Sequence of Histone deacetylase 5 (Q9UQL6 whole entry): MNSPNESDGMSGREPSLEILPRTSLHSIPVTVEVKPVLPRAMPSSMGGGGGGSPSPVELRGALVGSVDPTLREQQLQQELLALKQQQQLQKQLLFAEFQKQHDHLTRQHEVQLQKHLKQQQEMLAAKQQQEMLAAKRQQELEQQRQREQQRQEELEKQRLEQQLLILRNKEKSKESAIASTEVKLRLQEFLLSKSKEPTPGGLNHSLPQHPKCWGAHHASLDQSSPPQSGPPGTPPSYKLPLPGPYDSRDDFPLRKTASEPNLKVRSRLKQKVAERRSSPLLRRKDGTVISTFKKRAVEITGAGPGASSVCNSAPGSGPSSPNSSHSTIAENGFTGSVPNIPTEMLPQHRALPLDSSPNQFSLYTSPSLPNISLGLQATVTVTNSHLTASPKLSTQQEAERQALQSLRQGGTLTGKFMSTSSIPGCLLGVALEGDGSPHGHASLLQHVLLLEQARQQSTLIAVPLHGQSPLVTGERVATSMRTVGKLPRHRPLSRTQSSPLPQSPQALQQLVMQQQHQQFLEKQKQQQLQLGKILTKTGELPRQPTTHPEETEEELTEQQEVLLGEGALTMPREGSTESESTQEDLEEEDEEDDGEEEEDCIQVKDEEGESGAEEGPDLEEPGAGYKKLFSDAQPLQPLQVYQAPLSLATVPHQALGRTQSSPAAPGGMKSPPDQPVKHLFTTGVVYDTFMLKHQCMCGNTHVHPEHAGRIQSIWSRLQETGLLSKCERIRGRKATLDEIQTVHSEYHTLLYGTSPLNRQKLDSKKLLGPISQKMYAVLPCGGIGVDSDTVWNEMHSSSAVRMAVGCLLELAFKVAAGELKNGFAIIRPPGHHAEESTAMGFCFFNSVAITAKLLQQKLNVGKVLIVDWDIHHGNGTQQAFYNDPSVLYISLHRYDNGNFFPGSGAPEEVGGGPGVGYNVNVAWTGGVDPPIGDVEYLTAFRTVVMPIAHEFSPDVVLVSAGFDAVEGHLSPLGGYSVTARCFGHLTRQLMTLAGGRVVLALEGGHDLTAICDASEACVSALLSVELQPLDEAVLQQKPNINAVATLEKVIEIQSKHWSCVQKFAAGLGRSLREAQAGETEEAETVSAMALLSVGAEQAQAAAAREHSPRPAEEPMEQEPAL
Sequence of Histone deacetylase 2 (Q92769 whole entry): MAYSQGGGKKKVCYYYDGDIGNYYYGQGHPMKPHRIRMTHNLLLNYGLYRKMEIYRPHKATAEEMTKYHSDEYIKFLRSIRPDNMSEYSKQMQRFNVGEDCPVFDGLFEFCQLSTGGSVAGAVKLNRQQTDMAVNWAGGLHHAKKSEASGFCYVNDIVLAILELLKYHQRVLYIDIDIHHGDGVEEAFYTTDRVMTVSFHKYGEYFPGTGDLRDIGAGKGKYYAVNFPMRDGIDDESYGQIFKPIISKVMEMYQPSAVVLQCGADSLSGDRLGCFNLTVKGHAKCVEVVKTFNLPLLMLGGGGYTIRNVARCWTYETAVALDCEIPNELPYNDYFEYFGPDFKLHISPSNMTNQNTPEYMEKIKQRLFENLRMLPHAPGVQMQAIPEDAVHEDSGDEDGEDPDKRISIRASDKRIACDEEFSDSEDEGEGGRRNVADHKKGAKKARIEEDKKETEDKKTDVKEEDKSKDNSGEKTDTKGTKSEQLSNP

Nc1ccccc1NC(=O)c1ccc(CNc2nccc(-c3ccn[nH]3)n2)cc1
half-life [1]: 72 min | clearance [2]: 9.17 mL/min/kg | Vd [3]: 0.13 L/kg | Tmax [4]: 30 min | bioavailability [5]: 16% | Activity [6]: 0.01 nmol/mg/min | Activity [7]: 0.054 nmol/mg/min | Activity [8]: 0.043 nmol/mg/min | solubility [9]: > 1000 µg/mL | solubility [10]: 77 µg/mL (≈ 200 µM) | T/C (HCT-15): 79% | T/C [11]: 43% | T/C [12]: 53% | T/C [13]: 61% | T/C [14]: 48% | Activity (Mus musculus [15]): Non-toxic | Activity (Mus musculus [16]): Non-toxic | Activity (Mus musculus [17]): Non-toxic | Activity (Mus musculus [18]): Non-toxic | Ratio IC50 (HMEC): >30 | EC50 (T-24): 1 µM | IC50 (Histone deacetylase 5): > 10 µM | IC50 (Histone deacetylase 7): > 20 µM | IC50 (Histone deacetylase 8): > 10 µM | IC50 (Histone deacetylase 2): 0.14 µM | IC50 (HCT-116): 0.3 µM
